Data published in patent US11053241B2, “TYK2 inhibitors and uses thereof” (Nimbus Lakshmi, Inc., priority 2018, dated 2021).
pKd: −log10 of the molar value.

Target: human TYK2 (JH2domain-pseudokinase) (Homo sapiens (Human), UniProt P29597)
Test: TYK2 JH2 Domain Binding Assay (KINOMEscan)
Conditions: 11-point 3-fold dilution, top concentration 30,000 nM, duplicate
Experimental: Binding constants for compounds of the present invention against the JH2 domain were determined by the following protocol for a KINOMEscan® assay (DiscoveRx). A fusion protein of a partial length construct of human TYK2 (JH2domain-pseudokinase) (amino acids G556 to D888 based on reference sequence NP_003322.3) and the DNA binding domain of NFkB was expressed in transiently transfected HEK293 cells. From these HEK 293 cells, extracts were prepared in M-PER extraction buffer (Pierce) in the presence of Protease Inhibitor Cocktail Complete (Roche) and Phosphatase Inhibitor Cocktail Set II (Merck) per manufacturers' instructions. The TYK2(JH2domain-pseudokinase) fusion protein was labeled with a chimeric double-stranded DNA tag containing the NFkB binding site (5′-GGGAATTCCC-3′) fused to an amplicon for qPCR readout, which was added directly to the expression extract (the final concentration of DNA-tag in the binding reaction is 0.1 nM).
Streptavidin-coated magnetic beads (Dynal M280) were treated with a biotinylated small molecule ligand for 30 minutes at room temperature to generate affinity resins for the binding assays. The liganded beads were blocked with excess biotin and washed with blocking buffer (SeaBlock (Pierce), 1% BSA, 0.05% Tween 20, 1 mM DTT) to remove unbound ligand and to reduce nonspecific binding.
The binding reaction was assembled by combining 16 μl of DNA-tagged kinase extract, 3.8 μl liganded affinity beads, and 0.18 μl test compound (PBS/0.05% Tween 20/10 mM DTT/0.1% BSA/2 μg/ml sonicated salmon sperm DNA). Extracts were used directly in binding assays without any enzyme purification steps at a ≥10,000-fold overall stock dilution (final DNA-tagged enzyme concentration <0.1 nM). Extracts were loaded with DNA-tag and diluted into the binding reaction in a two step process. First extracts were diluted 1:100 in 1× binding buffer (PBS/0.05% Tween 20/10 mM DTT/0.1% BSA/2 μg/ml sonicated salmon sperm DNA) containing 10 nM DNA-tag. This dilution was allowed to equilibrate at room temperature for 15 minutes and then subsequently diluted 1:100 in 1× binding buffer. All reactions were performed in polypropylene 384-well plates. Each was a final volume of 0.02 mL. Assays were incubated with shaking for 1 hour at room temperature. Then the beads were pelleted and washed with wash buffer (1×PBS, 0.05% Tween 20) to remove displaced kinase and test compound. The washed based were re-suspended in elution buffer (1×PBS, 0.05% Tween 20, 0.5 μM non-biotinylated affinity ligand) and incubated at room temperature with shaking for 30 minutes. The kinase concentration in the eluates was measured by qPCR. qPCR reactions were assembled by adding 2.5 μL of kinase eluate to 7.5 μL of qPCR master mix containing 0.15 μM amplicon primers and 0.15 μM amplicon probe. The qPCR protocol consisted of a 10 minute hot start at 95° C., followed by 35 cycles of 95° C. for 15 seconds, 60° C. for 1 minute.
Test compounds were prepared as 111× stocks in 100% DMSO. Kd values were determined using an 11-point 3-fold compound dilution series with three DMSO control points. All compounds for Kd measurements are distributed by acoustic transfer (non-contact dispensing) in 100% DMSO. The compounds were then diluted directly into the assays such that the final concentration of DMSO was 0.9%. The Kd values were determined using a compound top concentration of 30,000 nM. Kd measurements were performed in duplicate.
Binding constants (Kds) were calculated with a standard dose-response curve using the Hill equation: […]
The Hill Slope was set to −1. Curves were fitted using a non-linear least square fit with the Levenberg-Marquardt algorithm (Levenberg, K., A method for the solution of certain non-linear problems in least squares, Q. Appl. Math. 2, 164-168 (1944)).

Sequence of human TYK2 (JH2domain-pseudokinase) (P29597 556-888): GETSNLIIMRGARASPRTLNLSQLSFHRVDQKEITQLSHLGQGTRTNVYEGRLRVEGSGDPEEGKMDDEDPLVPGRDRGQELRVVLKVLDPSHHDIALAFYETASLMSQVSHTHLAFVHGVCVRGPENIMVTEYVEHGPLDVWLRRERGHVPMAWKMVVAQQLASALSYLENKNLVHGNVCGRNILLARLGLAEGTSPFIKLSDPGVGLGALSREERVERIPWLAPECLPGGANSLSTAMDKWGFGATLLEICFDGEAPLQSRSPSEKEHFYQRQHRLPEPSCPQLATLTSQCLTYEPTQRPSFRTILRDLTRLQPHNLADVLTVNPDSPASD

Row | pKd | Compound
1 | > 9.70 | CNC(=O)c1cnc(NC(=O)C2CC2)c2[nH]c(-c3cccc(C4=NC(C)(C)CO4)c3F)cc12 [Compound I-87, 7-(cyclopropanecarboxamido)-2-(3-(4,4-dimethyl-4,5-dihydrooxazol-2-yl)-2-fluorophenyl)-N-methyl-1H-pyrrolo[2,3-c]pyridine-4-carboxamide]
2 | > 9.70 | CNC(=O)c1cnc(NC(=O)C2CC2)c2[nH]c(-c3cccc(-c4cn5c(n4)C(C)(C)OCC5)c3F)cc12 [Compound I-84, 7-(cyclopropanecarboxamido)-2-(3-(8,8-dimethyl-5,6-dihydro-8H-imidazo[2,1-c][1,4]oxazin-2-yl)-2-fluorophenyl)-N-methyl-1H-pyrrolo[2,3-c]pyridine-4-carboxamide]
3 | 9.00 to 9.70 | CNC(=O)c1cnc(NC(=O)C2CC2)c2[nH]c(-c3cccc(-n4nccn4)c3F)cc12 [Compound I-63, 7-(cyclopropanecarboxamido)-2-(2-fluoro-3-(2H-1,2,3-triazol-2-yl)phenyl)-N-methyl-1H-pyrrolo[2,3-c]pyridine-4-carboxamide]
4 | < 8.00 | CNC(=O)c1cnc(NC(=O)C2CC2)c2[nH]c(-c3ccc(C4COCCO4)cc3OC)cc12 (centres unmarked) [Compound I-61, 2-(4-(1,4-dioxan-2-yl)-2-methoxyphenyl)-7-(cyclopropanecarboxamido)-N-methyl-1H-pyrrolo[2,3-c]pyridine-4-carboxamide]
5 | > 9.70 | CNC(=O)c1cnc(NC(=O)C2CC2)c2[nH]c(-c3cccc(-c4cnc(C)o4)c3F)cc12 [Compound I-81, 7-(cyclopropanecarboxamido)-2-(2-fluoro-3-(2-methyloxazol-5-yl)phenyl)-N-methyl-1H-pyrrolo[2,3-c]pyridine-4-carboxamide]
6 | > 9.70 | CNC(=O)c1cnc(Nc2ccn(C)n2)c2[nH]c(-c3cccc(-c4cnc(C)o4)c3F)cc12 [Compound I-99, 2-(2-fluoro-3-(2-methyloxazol-5-yl)phenyl)-N-methyl-7-((1-methyl-1H-pyrazol-3-yl)amino)-1H-pyrrolo[2,3-c]pyridine-4-carboxamide]
7 | > 9.70 | CNC(=O)c1cnc(NC(=O)C2CC2)c2[nH]c(-c3cccc(-n4cnc(C)n4)c3F)cc12 [Compound I-47, 7-(cyclopropanecarboxamido)-2-(2-fluoro-3-(3-methyl-1H-1,2,4-triazol-1-yl)phenyl)-N-methyl-1H-pyrrolo[2,3-c]pyridine-4-carboxamide]
8 | > 9.70 | CNC(=O)c1cnc(NC(=O)C2CC2)c2[nH]c(-c3ccc4nc(C)n(C)c4c3F)cc12 [Compound I-92, 7-(cyclopropanecarboxamido)-2-(7-fluoro-1,2-dimethyl-1H-benzo[d]imidazol-6-yl)-N-methyl-1H-pyrrolo[2,3-c]pyridine-4-carboxamide]
9 | > 9.70 | CNC(=O)c1cnc(NC(=O)C2CC2)c2[nH]c(-c3c(F)cc(-c4nccn4C)cc3N3CCC(F)(F)C3)cc12 [Compound I-83, 7-(cyclopropanecarboxamido)-2-(2-(3,3-difluoropyrrolidin-1-yl)-6-fluoro-4-(1-methyl-1H-imidazol-2-yl)phenyl)-N-methyl-1H-pyrrolo[2,3-c]pyridine-4-carboxamide]
10 | 9.00 to 9.70 | CNC(=O)c1cnc(NC(=O)C2CC2)c2[nH]c(-c3cccc(-c4nnn(C)n4)c3)cc12 [Compound I-50, 7-(cyclopropanecarboxamido)-N-methyl-2-(3-(2-methyl-2H-tetrazol-5-yl)phenyl)-1H-pyrrolo[2,3-c]pyridine-4-carboxamide]
11 | 9.00 to 9.70 | CNC(=O)c1cnc(NC(=O)C2CC2)c2[nH]c(-c3ccccc3N3CCC(O)CC3)cc12 [Compound I-46, 7-(cyclopropanecarboxamido)-2-(2-(4-hydroxypiperidin-1-yl)phenyl)-N-methyl-1H-pyrrolo[2,3-c]pyridine-4-carboxamide]
12 | > 9.70 | CNC(=O)c1cnc(NC(=O)C2CC2)c2[nH]c(-c3cccc([C@H]4C[C@H](OC)C4)c3F)cc12 [Compound I-94, 7-(cyclopropanecarboxamido)-2-(2-fluoro-3-((1r,3r)-3-methoxycyclobutyl)phenyl)-N-methyl-1H-pyrrolo[2,3-c]pyridine-4-carboxamide]
13 | 8.00 to 9.00 | CNC(=O)c1cnc(NC(=O)C2CC2)c2[nH]c(-c3ccc(-c4nccn4C)cc3OC3CC3)cc12 [Compound I-57, 7-(cyclopropanecarboxamido)-2-(2-cyclopropoxy-4-(1-methyl-1H-imidazol-2-yl)phenyl)-N-methyl-11H-pyrrolo[2,3-c]pyridine-4-carboxamide]
14 | > 9.70 | CNC(=O)c1cnc(NC(=O)C2CC2)c2[nH]c(-c3cccc(C4CCCO4)c3F)cc12 (centres unmarked) [Compound I-95, 7-(cyclopropanecarboxamido)-2-(2-fluoro-3-(tetrahydrofuran-2-yl)phenyl)-N-methyl-1H-pyrrolo[2,3-c]pyridine-4-carboxamide]
15 | > 9.70 | CNC(=O)c1cnc(NC(=O)C2CC2)c2[nH]c(-c3ccc(-c4ncc(C)n4C)cc3F)cc12 [Compound I-68, 7-(cyclopropanecarboxamido)-2-(4-(1,5-dimethyl-1H-imidazol-2-yl)-2-fluorophenyl)-N-methyl-1H-pyrrolo[2,3-c]pyridine-4-carboxamide]
16 | 9.00 to 9.70 | CNC(=O)c1cnc(NC(=O)C2CC2)c2[nH]c(-c3cccc(OC4CCOCC4)c3F)cc12 [Compound I-85, 7-(cyclopropanecarboxamido)-2-(2-fluoro-3-((tetrahydro-2H-pyran-4-yl)oxy)phenyl)-N-methyl-1H-pyrrolo[2,3-c]pyridine-4-carboxamide]
17 | > 9.70 | CNC(=O)c1cnc(NC(=O)C2CC2)c2[nH]c(-c3c(F)cc(-c4nccn4C)cc3F)cc12 [Compound I-77, 7-(cyclopropanecarboxamido)-2-(2,6-difluoro-4-(1-methyl-1H-imidazol-2-yl)phenyl)-N-methyl-1H-pyrrolo[2,3-c]pyridine-4-carboxamide]
18 | > 9.70 | CNC(=O)c1cnc(NC(=O)C2CC2)c2[nH]c(-c3cccc(-c4cn5c(n4)OCCC5)c3F)cc12 [Compound I-76, 7-(cyclopropanecarboxamido)-2-(3-(6,7-dihydro-5H-imidazo[2,1-b][1,3]oxazin-2-yl)-2-fluorophenyl)-N-methyl-1H-pyrrolo[2,3-c]pyridine-4-carboxamide]
19 | > 9.70 | CNC(=O)c1cnc(NC(=O)C2CC2)c2[nH]c(-c3ccc(-c4nccs4)cc3OC)cc12 [Compound I-60, 7-(cyclopropanecarboxamido)-2-(2-methoxy-4-(thiazol-2-yl)phenyl)-N-methyl-1H-pyrrolo[2,3-c]pyridine-4-carboxamide]
20 | > 9.70 | CNC(=O)c1cnc(NC(=O)C2CC2)c2[nH]c(-c3cccc([C@H]4C[C@@H](OC)C4)c3F)cc12 [Compound I-91, 7-(cyclopropanecarboxamido)-2-(2-fluoro-3-((1s,3s)-3-methoxycyclobutyl)phenyl)-N-methyl-1H-pyrrolo[2,3-c]pyridine-4-carboxamide]
21 | > 9.70 | CNC(=O)c1cnc(NC(=O)C2CC2)c2[nH]c(-c3ccc(OC[C@@H]4CCCO4)cc3F)cc12 [Compound I-88, (S)-7-(cyclopropanecarboxamido)-2-(2-fluoro-4-((tetrahydrofuran-2-yl)methoxy)phenyl)-N-methyl-1H-pyrrolo[2,3-c]pyridine-4-carboxamide]
22 | 9.00 to 9.70 | CNC(=O)c1cnc(NC(=O)C2CC2)c2[nH]c(-c3cccn(C4CCCOC4)c3=O)cc12 (stereo in doubt) [Compound I-55, (S)-7-(cyclopropanecarboxamido)-N-methyl-2-(2-oxo-1-(tetrahydro-2H-pyran-3-yl)-1,2-dihydropyridin-3-yl)-1H-pyrrolo[2,3-c]pyridine-4-carboxamide]
23 | 9.00 to 9.70 | CNC(=O)c1cnc(Nc2ccn(C)n2)c2[nH]c(-c3ccccc3)cc12 [Compound I-93, N-methyl-7-((1-methyl-1H-pyrazol-3-yl)amino)-2-phenyl-1H-pyrrolo[2,3-c]pyridine-4-carboxamide]
